{"source": "ChEMBL document CHEMBL1155665", "about": "“Euplectin and coneuplectin, new naphthopyrones from the lichen Flavoparmelia euplecta” (J Nat Prod, 2000)", "test_system": "P815", "test": "Antiproliferative activity against mouse P815 cells assessed as incorporation of [3H]thymidine after 18 hrs by liquid scintillation counting", "assay_type": "functional, cell-based", "data": [{"smiles": "Cc1cc(=O)c2c(O)cc3cc4c(c(O)c3c2o1)C(=O)C=C4", "note": "[EUPLECTIN]", "values": [{"measurement": "IC50", "result": 1.67, "unit": "µg/mL"}]}]}
